According to ChEMBL document CHEMBL4680212, “Discovery of T-1101 tosylate as a first-in-class clinical candidate for Hec1/Nek2 inhibition in cancer therapy” (Eur J Med Chem, 2020):
pIC50: −log10 of the molar value.

What was measured:
MDA-MB-468 [1] = test: Antiproliferative activity against human MDA-MB-468 cells measured after 96 hrs by CellTiter 96 Aqueous One Solution Reagent based assay; type: functional, cell-based; details: MDA-MB-468, 96 h
K562 = test: Antiproliferative activity against human K562 cells measured after 96 hrs by CellTiter 96 Aqueous One Solution Reagent based assay; type: functional, cell-based; details: K562, 96 h
[2] = AUC in CD-1 mouse at 10 mg/kg, po administered as single dose via gavage by LC-MS/MS analysis; type: ADME, organism-based; set-up: dose 10 mg/kg; details: in vivo
[3] = Oral bioavailability in CD-1 mouse at 10 mg/kg administered as single dose via gavage by LC-MS/MS analysis; type: ADME, organism-based; details: in vivo
MDA-MB-468 [4] = test: Induction of mitosis in human MDA-MB-468 cells assessed as mitotic abnormalities at 1 uM measured after 24 hrs by immunofluorescence staining based microscopic analysis (reference value: 23%); type: functional
MDA-MB-468 [5] = test: Induction of mitosis in human MDA-MB-468 cells assessed as mitotic abnormalities at 1 uM measured after 48 hrs by immunofluorescence staining based microscopic analysis (reference value: 23%); type: functional
HeLa [6] = test: Cell cycle arrest in human HeLa cells assessed as accumulation at G1 phase at 1 uM measured after 24 hrs by propidium iodide staining based FACS analysis (reference value: 66.51%); type: functional
HeLa [7] = test: Cell cycle arrest in human HeLa cells assessed as accumulation at S phase at 1 uM measured after 24 hrs by propidium iodide staining based FACS analysis (reference value: […]%); type: functional
HeLa [8] = test: Cell cycle arrest in human HeLa cells assessed as accumulation at G2/M phase at 1 uM measured after 24 hrs by propidium iodide staining based FACS analysis (reference value: 12.93%); type: functional
U-937 = test: Antiproliferative activity against human U-937 cells measured after 96 hrs by CellTiter 96 Aqueous One Solution Reagent based assay; type: functional
U2OS = test: Antiproliferative activity against human U2OS cells measured after 96 hrs by CellTiter 96 Aqueous One Solution Reagent based assay; type: functional
[9] = target: Voltage-gated inwardly rectifying potassium channel KCNH2 (Homo sapiens, UniProt Q12809); test: Inhibition of human ERG
[10] = Drug level in tumor of human Huh-7 cells xenografted SCID mouse at 10 mg/kg, iv measured after 1 hr by LC-MS/MS analysis; type: ADME, organism-based, Neoplasm; details: read-out: Drug uptake
[11] = Drug level in tumor of human Huh-7 cells xenografted SCID mouse at 10 mg/kg, iv measured after 8 hrs by LC-MS/MS analysis; type: ADME, organism-based, Neoplasm; details: read-out: Drug uptake
[12] = Drug level in tumor of human Huh-7 cells xenografted SCID mouse at 10 mg/kg, iv measured after 12 hrs by LC-MS/MS analysis; type: ADME, organism-based, Neoplasm; details: read-out: Drug uptake
Huh-7 [13] = test: Antiproliferative activity against human Huh-7 cells by CellTiter 96 Aqueous One Solution Reagent based assay; type: functional; set-up: dose or concentration left out as unconfirmed
[14] = Ratio of drug level in tumor to plasma of human Huh-7 cells xenografted SCID mouse at 10 mg/kg, iv measured after 0.5 hrs by LC-MS/MS analysis; type: ADME, organism-based; details: tumour
[15] = Ratio of drug level in tumor to plasma of human Huh-7 cells xenografted SCID mouse at 10 mg/kg, iv measured after 1 hr by LC-MS/MS analysis; type: ADME, organism-based; details: tumour
[16] = Ratio of drug level in tumor to plasma of human Huh-7 cells xenografted SCID mouse at 10 mg/kg, iv measured after 8 hrs by LC-MS/MS analysis; type: ADME, organism-based; details: tumour
[17] = Ratio of drug level in tumor to plasma of human Huh-7 cells xenografted SCID mouse at 10 mg/kg, iv measured after 12 hrs by LC-MS/MS analysis; type: ADME, organism-based; details: tumour
[18] = Ratio of drug level in tumor to plasma of human Huh-7 cells xenografted SCID mouse at 10 mg/kg, iv measured after 24 hrs by LC-MS/MS analysis; type: ADME, organism-based; details: tumour
[19] = Drug level in tumor of human MDA-MB-231 cells xenografted SCID mouse at 10 mg/kg, iv measured after 2 hrs by LC-MS/MS analysis; type: ADME, organism-based, Neoplasm; details: read-out: Drug uptake
Huh-7 [20] = test: Antitumor activity against human Huh-7 cells xenografted in SCID mouse assessed as tumor growth at 50 mg/kg, po administered twice daily for 28 days measured post last dose relative to control; type: functional; details: time 28 day
BT-474 = test: Antitumor activity against human BT-474 cells xenografted in SCID mouse assessed as tumor growth at 50 mg/kg, po administered twice daily for 28 days measured post last dose relative to control; type: functional; details: time 28 day
MCF7 = test: Antitumor activity against human MCF7 cells xenografted in SCID mouse assessed as tumor growth at 50 mg/kg, po administered twice daily for 28 days measured post last dose relative to control; type: functional; details: time 28 day
MDA-MB-231 = test: Antitumor activity against human MDA-MB-231 cells xenografted in SCID mouse assessed as tumor growth at 25 mg/kg, po administered twice daily for 28 days measured post last dose relative to control; type: functional; details: time 28 day
Huh-7 [21] = test: Antitumor activity against human Huh-7 cells xenografted in SCID mouse assessed as tumor growth at 25 mg/kg, po administered once daily for 28 days measured post last dose relative to control; type: functional; details: time 28 day
Huh-7 [22] = test: Antitumor activity against human Huh-7 cells xenografted in SCID mouse assessed as tumor growth at […], po administered twice daily for 28 days measured post last dose in presence of sorafenib relative to control; type: functional; details: time 28 day
Huh-7 [23] = test: Antitumor activity against human Huh-7 cells xenografted in SCID mouse assessed as tumor growth at […], po administered twice daily for 28 days measured post last dose relative to control; type: functional; details: time 28 day
[24] = Tmax in CD-1 mouse at 10 mg/kg, po administered as single dose via gavage by LC-MS/MS analysis; type: ADME, organism-based; details: in vivo
[25] = Half life in CD-1 mouse at 10 mg/kg, po administered as single dose via gavage by LC-MS/MS analysis; type: ADME, organism-based; details: in vivo
[26] = Toxicity in Sprague-Dawley rat assessed as effect on locomotor activity up to 60 mg/kg, po administered as single dose; type: organism-based; details: in vivo
[27] = Toxicity in Sprague-Dawley rat assessed as restlessness up to 60 mg/kg, po administered as single dose; type: organism-based; details: in vivo
[28] = Toxicity in Sprague-Dawley rat assessed as lethargy up to 60 mg/kg, po administered as single dose; type: organism-based; details: in vivo
[29] = Toxicity in Sprague-Dawley rat assessed as tremor up to 60 mg/kg, po administered as single dose; type: organism-based; details: in vivo
[30] = Toxicity in Sprague-Dawley rat assessed as convulsion up to 60 mg/kg, po administered as single dose; type: organism-based; details: in vivo
[31] = Toxicity in Sprague-Dawley rat assessed as change in touch response up to 60 mg/kg, po administered as single dose; type: organism-based; details: in vivo
[32] = Toxicity in Beagle dog assessed as cardiopulmonary effect at 40 mg/kg, po administered as single dose; type: organism-based, Canis lupus familiaris; details: in vivo
[33] = Toxicity in Sprague-Dawley rat assessed as change in serum biochemistry at 60 mg/kg, po measured during 28 days; type: organism-based; details: in vivo, time 28 day
[34] = Toxicity in Sprague-Dawley rat assessed as effect on organ at 60 mg/kg, po measured during 28 days; type: organism-based; details: in vivo, time 28 day

Sequence of Voltage-gated inwardly rectifying potassium channel KCNH2 (Q12809 whole entry): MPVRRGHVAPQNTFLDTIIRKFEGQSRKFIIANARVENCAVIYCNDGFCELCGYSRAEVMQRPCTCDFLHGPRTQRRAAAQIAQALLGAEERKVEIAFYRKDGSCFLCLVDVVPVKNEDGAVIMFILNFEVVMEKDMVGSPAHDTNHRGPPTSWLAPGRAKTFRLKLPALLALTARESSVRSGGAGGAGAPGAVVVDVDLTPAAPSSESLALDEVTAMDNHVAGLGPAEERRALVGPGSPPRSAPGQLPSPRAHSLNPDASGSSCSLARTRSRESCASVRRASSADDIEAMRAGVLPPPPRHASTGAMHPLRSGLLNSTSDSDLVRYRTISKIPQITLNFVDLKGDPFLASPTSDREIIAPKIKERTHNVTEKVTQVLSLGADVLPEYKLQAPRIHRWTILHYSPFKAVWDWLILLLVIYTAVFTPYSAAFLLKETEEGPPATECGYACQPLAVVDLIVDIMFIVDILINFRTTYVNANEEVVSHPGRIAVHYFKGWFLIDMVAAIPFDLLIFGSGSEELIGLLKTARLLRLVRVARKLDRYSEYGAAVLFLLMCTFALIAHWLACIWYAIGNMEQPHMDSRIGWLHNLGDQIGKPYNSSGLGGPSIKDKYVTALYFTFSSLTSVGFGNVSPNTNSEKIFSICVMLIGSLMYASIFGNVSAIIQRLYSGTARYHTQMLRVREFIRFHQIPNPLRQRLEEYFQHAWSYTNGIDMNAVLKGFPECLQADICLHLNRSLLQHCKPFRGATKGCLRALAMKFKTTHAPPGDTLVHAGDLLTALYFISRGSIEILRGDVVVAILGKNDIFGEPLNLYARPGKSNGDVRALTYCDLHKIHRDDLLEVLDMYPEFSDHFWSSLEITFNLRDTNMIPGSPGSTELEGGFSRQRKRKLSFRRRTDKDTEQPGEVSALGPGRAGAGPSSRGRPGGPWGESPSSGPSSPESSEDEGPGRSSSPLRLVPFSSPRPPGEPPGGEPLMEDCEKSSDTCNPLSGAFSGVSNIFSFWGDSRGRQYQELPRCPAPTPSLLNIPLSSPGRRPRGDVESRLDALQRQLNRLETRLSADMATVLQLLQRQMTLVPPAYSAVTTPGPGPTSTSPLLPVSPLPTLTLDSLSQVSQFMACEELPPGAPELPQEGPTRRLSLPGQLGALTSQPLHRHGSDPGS

COCCOc1cnc(Sc2cc(C)c(-c3csc(NC(=O)c4ccncc4)n3)c(C)c2)cn1
pIC50 (MDA-MB-468 [1]): 7.67 | pIC50 (K562): 7.74 | AUC [2]: 43.5 µM·h | bioavailability [3]: 50.6% | Activity (MDA-MB-468 [4]): 45% | Activity (MDA-MB-468 [5]): 64% | Activity (HeLa [6]): 54.2% | Activity (HeLa [7]): 15.07% | Activity (HeLa [8]): 9.27% | GI50 (U-937): 12.4 nM | GI50 (U2OS): 83.2 nM | inhibition (INH) [9]: Not Active | concentration at 1 h [10]: 2660 nM | concentration at 8 h [11]: 937 nM | concentration at 12 h [12]: 507 nM | GI50 (Huh-7 [13]): 35 nM | Ratio [14]: 20.7% | Ratio [15]: 26.1% | Ratio [16]: 35% | Ratio [17]: 60.5% | Ratio [18]: 41.1% | concentration at 2 h [19]: 2950 nM | T/C (Huh-7 [20]): 18% | T/C (BT-474): 19% | T/C (MCF7): 52% | T/C (MDA-MB-231): 40% | T/C (Huh-7 [21]): 25% | T/C (Huh-7 [22]): 26% | T/C (Huh-7 [23]): 61% | Tmax [24]: 0.5 h | half-life [25]: 2.57 h | Activity [26]: Non-Toxic | Activity [27]: Non-Toxic | Activity [28]: Non-Toxic | Activity [29]: Non-Toxic | Activity [30]: Non-Toxic | Activity [31]: Non-Toxic | Activity [32]: Non-Toxic | Activity [33]: Non-Toxic | Activity [34]: Non-Toxic
